Experimental data published in patent publication US8063048B2, “Acetylenyl-pyrazolo-pyrimidine derivatives” (Hoffmann-La Roche Inc., priority 2005, dated 2011).

Row | Compound | melting point
1 | O=S(=O)(NCCO)c1ccc(C#Cc2cnn3c(C(F)F)cc(-c4ccc(C(F)(F)F)cc4)nc23)cc1 [Example 140, 4-[7-Difluoromethyl-5-(4-trifluoromethyl-phenyl)-pyrazolo[1,5-a]pyrimidin-3-ylethynyl]-N-(2-hydroxy-ethyl)-benzenesulfonamide] | 191 to 194 °C
2 | NS(=O)(=O)c1cc(C#Cc2cnn3c(C(F)F)cc(-c4cccc(C(F)(F)F)c4)nc23)c(F)cc1F [Example 166, 5-[7-Difluoromethyl-5-(3-trifluoromethyl-phenyl)-pyrazolo[1,5-a]pyrimidin-3-ylethynyl]-2,4-difluoro-benzenesulfonamide] | 277 °C
3 | O=S(=O)(NCCO)c1cc(C#Cc2cnn3c(C(F)F)cc(-c4ccc(C(F)(F)F)cc4)nc23)c(F)cc1F [Example 135, 5-[7-Difluoromethyl-5-(4-trifluoromethyl-phenyl)-pyrazolo[1,5-a]pyrimidin-3-ylethynyl]-2,4-difluoro-N-(2-hydroxy-ethyl)-benzenesulfonamide] | 149 to 150 °C
4 | NS(=O)(=O)c1ccc(C#Cc2cnc3c(C(F)(F)F)cc(-c4ccc(C(F)(F)F)cc4)nn23)s1 [Example 236, 5-[8-Trifluoromethyl-6-(4-trifluoromethyl-phenyl)-imidazo[1,2-b]pyridazin-3-ylethynyl]-thiophene-2-sulfonic acid amide] | 261 to 263 °C
5 | NS(=O)(=O)c1cncc(C#Cc2cnn3ccc(-c4ccc(Cl)cc4)nc23)c1 [Example 73, 5-[5-(4-Chloro-phenyl)-pyrazolo[1,5-a]pyrimidin-3-ylethynyl]-pyridine-3-sulfonic acid amide] | 248 to 249 °C
6 | Nc1ccc(C#Cc2cnn3c(C4CC4)cc(-c4ccc(Cl)cc4)nc23)cn1 [Example 294, 5-[5-(4-Chloro-phenyl)-7-cyclopropyl-pyrazolo[1,5-a]pyrimidin-3-ylethynyl]-pyridin-2-ylamine] | 233 to 235 °C
7 | CN(C)S(=O)(=O)c1ccc(C#Cc2cnn3c(C(F)(F)F)cc(-c4ccc(C(F)(F)F)cc4)nc23)cc1 [Example 121, N,N-Dimethyl-4-[7-trifluoromethyl-5-(4-trifluoromethyl-phenyl)-pyrazolo[1,5-a]pyrimidin-3-ylethynyl]-benzenesulfonamide] | 226 to 227 °C
8 | Cc1nc(C#Cc2cnn3c(C(F)(F)F)cc(-c4ccc(C(F)(F)F)cc4)nc23)sc1S(=O)(=O)NC(C)(C)CO [Example 53, 4-Methyl-2-[7-trifluoromethyl-5-(4-trifluoromethyl-phenyl)-pyrazolo[1,5-a]pyrimidin-3-ylethynyl]-thiazole-5-sulfonic acid (2-hydroxy-1,1-dimethyl-ethyl)-amide] | 216 to 218 °C
9 | CN(C)CCNS(=O)(=O)c1cc(C#Cc2cnn3c(C(F)F)cc(-c4ccc(C(F)(F)F)cc4)nc23)c(F)cc1F [Example 134, 5-[7-Difluoromethyl-5-(4-trifluoromethyl-phenyl)-pyrazolo[1,5-a]pyrimidin-3-ylethynyl]-N-(2-dimethylamino-ethyl)-2,4-difluoro-benzenesulfonamide] | 165 to 166 °C
10 | CNS(=O)(=O)c1ccc(C#Cc2cnn3c(C(F)F)cc(-c4ccc(C(F)(F)F)cc4)nc23)cc1 [Example 138, 4-[7-difluoromethyl-5-(4-trifluoromethyl-phenyl)-pyrazolo[1,5-a]pyrimidin-3-ylethynyl]-N-methyl-benzenesulfonamide] | 202 to 203 °C
11 | Cc1ccc(C#Cc2cnn3c(C(F)(F)F)cc(-c4ccc(C(F)(F)F)cc4)nc23)cn1 [Example 9, 3-(6-Methyl-pyridin-3-ylethynyl)-7-trifluoromethyl-5-(4-trifluoromethyl-phenyl)-pyrazolo[1,5-a]pyrimidine] | 195 °C
12 | O=S(=O)(NCCO)c1cccc(C#Cc2cnn3c(C(F)F)cc(-c4ccc(C(F)(F)F)cc4)nc23)c1 [Example 147, 3-[7-Difluoromethyl-5-(4-trifluoromethyl-phenyl)-pyrazolo[1,5-a]pyrimidin-3-ylethynyl]-N-(2-hydroxy-ethyl)-benzenesulfonamide] | 113 to 115 °C
13 | NS(=O)(=O)c1cc(C#Cc2ncn3c(C(F)F)cc(-c4ccc(C(F)(F)F)cc4)nc23)c(F)cc1F [Example 274, 5-[4-Difluoromethyl-2-(4-trifluoromethyl-phenyl)-imidazo[1,5-a]pyrimidin-8-ylethynyl]-2,4-difluoro-benzenesulfonamide] | 149 °C
14 | O=S(=O)(NCCc1ccncc1)c1ccc(C#Cc2cnn3c(C4CC4)cc(-c4ccc(Cl)cc4)nc23)s1 [Example 318, 5-[5-(4-Chloro-phenyl)-7-cyclopropyl-pyrazolo[1,5-a]pyrimidin-3-ylethynyl]-thiophene-2-sulfonic acid (2-pyridin-4-yl-ethyl)-amide] | 172 to 174 °C
15 | Nc1ccc(C#Cc2cnc3c(C(F)(F)F)cc(-c4ccc(C(F)(F)F)cc4)nn23)cn1 [Example 232, 5-[8-Trifluoromethyl-6-(4-trifluoromethyl-phenyl)-imidazo[1,2-b]pyridazin-3-ylethynyl]-pyridin-2-ylamine] | 267 °C
16 | Cc1cc(C#Cc2cnn3c(C(F)(F)F)cc(-c4ccc(C(F)(F)F)cc4)nc23)ccn1 [Example 2, 3-(2-Methyl-pyridin-4-ylethynyl)-7-trifluoromethyl-5-(4-trifluoromethyl-phenyl)-pyrazolo[1,5-a]pyrimidine] | 206 °C
17 | Nc1ccc(C#Cc2cnn3c(C(F)F)cc(-c4ccc(C(F)(F)F)cc4)nc23)cn1 [Example 188, 5-[7-Difluoromethyl-5-(4-trifluoromethyl-phenyl)-pyrazolo[1,5-a]pyrimidin-3-ylethynyl]-pyridin-2-ylamine] | 216 °C
18 | NS(=O)(=O)c1cccc(C#Cc2cnn3c(C(F)(F)F)cc(-c4ccc(Cl)cc4)nc23)c1 [Example 99, 3-[5-(4-Chloro-phenyl)-7-trifluoromethyl-pyrazolo[1,5-a]pyrimidin-3-ylethynyl]-benzenesulfonamide] | 290 to 293 °C
19 | CN(C)S(=O)(=O)c1ccc(C#Cc2cnn3c(C(F)F)cc(-c4ccc(C(F)(F)F)cc4)nc23)cc1 [Example 136, 4-[7-Difluoromethyl-5-(4-trifluoromethyl-phenyl)-pyrazolo[1,5-a]pyrimidin-3-ylethynyl]-N,N-dimethyl-benzenesulfonamide] | 211 to 212 °C
20 | CCOc1cc(-c2cc(C(F)(F)F)n3ncc(C#Cc4cccc(S(=O)(=O)NC(C)(C)CO)c4)c3n2)ccc1C(F)(F)F [Example 41, 3-[5-(3-Ethoxy-4-trifluoromethyl-phenyl)-7-trifluoromethyl-pyrazolo[1,5-a]pyrimidin-3-ylethynyl]-N-(2-hydroxy-1,1-dimethyl-ethyl)-benzenesulfonamide] | 209 to 211 °C
21 | COc1ccc(C#Cc2cnn3c(C(F)F)cc(-c4ccc(C(F)(F)F)cc4)nc23)cc1S(=O)(=O)NC(C)(C)CO [Example 43, 5-[7-Difluoromethyl-5-(4-trifluoromethyl-phenyl)-pyrazolo[1,5-a]pyrimidin-3-ylethynyl]-N-(2-hydroxy-1,1-dimethyl-ethyl)-2-methoxy-benzenesulfonamide] | 178 to 180 °C
22 | O=S(=O)(NCc1ccncc1)c1ccc(C#Cc2cnn3c(C(F)(F)F)cc(-c4ccc(C(F)(F)F)cc4)nc23)s1 [Example 272, 5-[7-Trifluoromethyl-5-(4-trifluoromethyl-phenyl)-pyrazolo[1,5-a]pyrimidin-3-ylethynyl]-thiophene-2-sulfonic acid (pyridin-4-ylmethyl)-amide] | 170 °C
23 | CNS(=O)(=O)c1cccc(C#Cc2cnn3c(C(F)(F)F)cc(-c4ccc(C(F)(F)F)cc4)nc23)c1 [Example 130, N-Methyl-3-[7-trifluoromethyl-5-(4-trifluoromethyl-phenyl)-pyrazolo[1,5-a]pyrimidin-3-ylethynyl]-benzenesulfonamide] | 213 to 214 °C
24 | NS(=O)(=O)c1cnc(C#Cc2cnn3c(C(F)(F)F)cc(-c4cccc(C(F)(F)F)c4)nc23)s1 [Example 105, 2-[7-Trifluoromethyl-5-(3-trifluoromethyl-phenyl)-pyrazolo[1,5-a]pyrimidin-3-ylethynyl]-thiazole-5-sulfonic acid amide] | 251 °C
25 | FC(F)(F)c1cccc(-c2cc(C(F)(F)F)n3ncc(C#Cc4cccnc4)c3n2)c1 [Example 103, 3-Pyridin-3-ylethynyl-7-trifluoromethyl-5-(3-trifluoromethyl-phenyl)-pyrazolo[1,5-a]pyrimidine] | 173 °C
26 | CC(C)(C)NS(=O)(=O)c1cncc(C#Cc2cnn3c(C(F)(F)F)cc(-c4ccc(C(F)(F)F)cc4)nc23)c1 [Example 17, 5-[7-Trifluoromethyl-5-(4-trifluoromethyl-phenyl)-pyrazolo[1,5-a]pyrimidin-3-ylethynyl]-pyridine-3-sulfonic acid tert-butylamide] | 224 °C
27 | CN1CCN(S(=O)(=O)c2ccc(C#Cc3cnn4c(C(F)(F)F)cc(-c5cccc(C(F)(F)F)c5)nc34)s2)CC1 [Example 249, 3-[5-(4-Methyl-piperazine-1-sulfonyl)-thiophen-2-ylethynyl]-7-trifluoromethyl-5-(3-trifluoromethyl-phenyl)-pyrazolo[1,5-a]pyrimidine] | 191 °C
28 | Cc1nc(N)ccc1C#Cc1cnn2c(C(F)(F)F)cc(-c3ccc(C(F)(F)F)cc3)nc12 [Example 128, 6-Methyl-5-[7-trifluoromethyl-5-(4-trifluoromethyl-phenyl)-pyrazolo[1,5-a]pyrimidin-3-ylethynyl]-pyridin-2-ylamine] | 251 to 254 °C
29 | CCOc1cccc(-c2cc(C(F)F)n3ncc(C#Cc4ccc(N)nc4)c3n2)c1 [Example 208, 5-[7-Difluoromethyl-5-(3-ethoxy-phenyl)-pyrazolo[1,5-a]pyrimidin-3-ylethynyl]-pyridin-2-ylamine] | 162 °C
30 | CC(O)c1ccc(C#Cc2cnc3c(C(F)(F)F)cc(-c4ccc(C(F)(F)F)cc4)cn23)cc1 (stereo not drawn) [Example 195, 1-{4-[8-Trifluoromethyl-6-(4-trifluoromethyl-phenyl)-imidazo[1,2-a]pyridin-3-ylethynyl]-phenyl}-ethanol] | 157 to 158 °C
